This note sets out measurements from PubChem BioAssay (NCI).

Among the test systems are PC-3 prostate; UACC-257 melanoma; SF-295 CNS; OVCAR-3 ovarian; NCI/ADR-RES ovarian; SK-OV-3 ovarian; SK-MEL-2 melanoma; TK-10 renal; MDA-MB-231 breast; SN12C renal.
Assay in all cases: NCI anticancer screen, dose series, 48 h

SMILES strings stand for the structures. “And” between values parts separate entries of the source, which are not always exact repeats. Equal entries are not always repeated.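 Test compounds were applied to cells in 96-well plates for 48 hours at 5 doses. At the GI50, growth is halved. TGI is the concentration that stops growth completely.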

As for `O=C(Nc1ccc(Cl)c(Cl)c1)Nc1ccc(Cl)c(Cl)c1`, the GI50 with PC-3 prostate is 2.82 µM and 1.78 µM; with UACC-257 melanoma, 2.39 µM and 2.05 µM; in the assay with SF-295 CNS, 2.3 µM and 1.84 µM; in the assay with OVCAR-3 ovarian, 3.03 µM and 1.66 µM; with NCI/ADR-RES ovarian, 3.03 µM and 2.7 µM; in the assay on SK-OV-3 ovarian, 3.39 µM and 3.82 µM. Moreover, the GI50 in the assay with SK-MEL-2 melanoma is 2.15 µM; with TK-10 renal it was 3.3 µM and 2.59 µM; in the assay with MDA-MB-231 breast, 1.63 µM and 1.73 µM; in the assay on SN12C renal it was 3.1 µM and 2.83 µM. Moreover, the TGI in the assay with PC-3 prostate was 12.3 µM and 9.82 µM; with UACC-257 melanoma it was 6.96 µM and 5.85 µM; in the assay on SF-295 CNS, 6.93 µM and 5.39 µM; in the assay with OVCAR-3 ovarian, 10.9 µM and 5.9 µM; in the assay on NCI/ADR-RES ovarian it was 12.9 µM and 14 µM; in the assay with SK-OV-3 ovarian, 11.6 µM and 15.9 µM. Also, the TGI with SK-MEL-2 melanoma was 5.49 µM and 4.09 µM; in the assay with TK-10 renal, 13.3 µM and 5.86 µM; in the assay with MDA-MB-231 breast it was 3.79 µM and 3.7 µM; in the assay on SN12C renal it was 11.8 µM and 10.7 µM.
As to `NC(=O)c1cccc2cn(-c3ccc([C@@H]4CCCNC4)cc3)nc12`, the GI50 in the assay with PC-3 prostate was 16.1 µM; in the assay on UACC-257 melanoma it was 15.8 µM; in the assay with SF-295 CNS, 4.65 µM; in the assay on OVCAR-3 ovarian, 14.8 µM; in the assay on NCI/ADR-RES ovarian, 19.5 µM; with SK-OV-3 ovarian, 12.6 µM. Also, the GI50 is 19.7 µM with SK-MEL-2 melanoma, 24.1 µM in the assay with TK-10 renal, 11.7 µM in the assay on MDA-MB-231 breast and 9.15 µM with SN12C renal. The TGI with PC-3 prostate was above 100 µM; in the assay with UACC-257 melanoma it was 30.7 µM; with SF-295 CNS it was 18.1 µM; in the assay with OVCAR-3 ovarian, 31.6 µM; with NCI/ADR-RES ovarian, above 74.5 µM; with SK-OV-3 ovarian it was 38.2 µM. Also, the TGI in the assay with SK-MEL-2 melanoma is 39.3 µM; with TK-10 renal it was 63.2 µM; in the assay on MDA-MB-231 breast, 31.2 µM; in the assay on SN12C renal, 56.8 µM.
As for `CC12CCC(O)CC1CCC1C2CCC2(C)C(C3=CC(=O)OC3)CCC12O` (stereo not given), the TGI in the assay with PC-3 prostate was 13.1 µM; with UACC-257 melanoma, above 43.4 µM; in the assay with SF-295 CNS, 10.8 µM; in the assay with OVCAR-3 ovarian, 10.3 µM; in the assay on NCI/ADR-RES ovarian, 5.77 µM; in the assay on SK-OV-3 ovarian it was 18.5 µM. The TGI with SK-MEL-2 melanoma was 22.7 µM; in the assay with TK-10 renal, above 35.4 µM; in the assay with MDA-MB-231 breast, above 100 µM; with SN12C renal, 4.72 µM.
With `Cn1cnc([N+](=O)[O-])c1Sc1nnc(-c2cccnc2)n1C`, the TGI with PC-3 prostate is above 57.9 µM; with UACC-257 melanoma it was 23 µM; in the assay with SF-295 CNS, above 100 µM; in the assay with OVCAR-3 ovarian it was 35.1 µM; in the assay with NCI/ADR-RES ovarian, above 100 µM; with SK-OV-3 ovarian it was above 100 µM. For the same compound, the TGI with SK-MEL-2 melanoma came to 46.1 µM; in the assay on TK-10 renal it was 32.8 µM; with MDA-MB-231 breast, 39.4 µM; in the assay on SN12C renal, 60.5 µM.
In the case of `O=C1CC(c2ccc3c(c2)OCO3)Nc2ccccc21` (stereo not given), the GI50 was 3.83 µM in the assay on PC-3 prostate; 26.4 µM with UACC-257 melanoma; 10.1 µM in the assay on SF-295 CNS; 5.01 µM in the assay with OVCAR-3 ovarian; 11.8 µM with NCI/ADR-RES ovarian; 16.8 µM with SK-OV-3 ovarian. The GI50 is 12.7 µM in the assay with SK-MEL-2 melanoma, 25.7 µM in the assay on TK-10 renal, 8.06 µM in the assay with MDA-MB-231 breast and 6.28 µM with SN12C renal. The TGI was 36.6 µM with PC-3 prostate; above 60.4 µM in the assay with UACC-257 melanoma; 24.1 µM with SF-295 CNS; 21.3 µM with OVCAR-3 ovarian; 39.9 µM in the assay on NCI/ADR-RES ovarian; above 100 µM with SK-OV-3 ovarian. Besides, the TGI is above 62.8 µM in the assay on SK-MEL-2 melanoma, 99.4 µM in the assay with TK-10 renal, 36.5 µM in the assay with MDA-MB-231 breast and 23 µM in the assay with SN12C renal.
For the compound `Cc1ccc(C(=O)/C(=C/c2ccc([N+](=O)[O-])cc2)SCc2ccc(Cl)cc2)cc1`, the GI50 was 1.12 µM in the assay on PC-3 prostate; 9.77 µM in the assay on UACC-257 melanoma; 1.55 µM with SF-295 CNS; 1.72 µM with OVCAR-3 ovarian; 2.06 µM with NCI/ADR-RES ovarian; 27.4 µM in the assay with SK-OV-3 ovarian. The GI50 was 15.8 µM in the assay on SK-MEL-2 melanoma, 4.95 µM in the assay on TK-10 renal, 1.96 µM with MDA-MB-231 breast and 1.83 µM in the assay on SN12C renal. For the same compound, the TGI in the assay on PC-3 prostate was 3.49 µM; in the assay on UACC-257 melanoma, 34.2 µM; with SF-295 CNS, 3.4 µM; in the assay on OVCAR-3 ovarian, 3.54 µM; in the assay with NCI/ADR-RES ovarian, 6.81 µM; with SK-OV-3 ovarian, above 100 µM. Also, the TGI worked out at 63.2 µM with SK-MEL-2 melanoma, 30.7 µM in the assay with TK-10 renal, 5.8 µM with MDA-MB-231 breast and 4.68 µM in the assay with SN12C renal.
For `CO[C@H](C(=O)[C@@H](O)[C@@H](C)O)[C@@H]1Cc2cc3cc(O[C@H]4C[C@@H](O[C@H]5C[C@@H](O)[C@H](O)C(C)O5)[C@H](O)C(C)O4)c(C)c(O)c3c(O)c2C(=O)[C@H]1O[C@H]1C[C@@H](O[C@H]2C[C@@H](O[C@H]3C[C@](C)(O)C(=O)C(C)O3)[C@@H](O)C(C)O2)[C@H](O)C(C)O1` (stereo not given in full), the GI50 is 0.151 µM in the assay on PC-3 prostate; 0.0995 µM in the assay with UACC-257 melanoma; 0.0828 µM in the assay with SF-295 CNS; 0.0907 µM with OVCAR-3 ovarian; 15.3 µM in the assay on NCI/ADR-RES ovarian; 0.139 µM in the assay on SK-OV-3 ovarian. Besides, the GI50 in the assay with SK-MEL-2 melanoma is 0.059 µM; in the assay with TK-10 renal, 0.21 µM; in the assay on MDA-MB-231 breast it was 0.145 µM; with SN12C renal it was 0.093 µM. For the same compound, the TGI with PC-3 prostate is 32.2 µM; in the assay on UACC-257 melanoma, 2.27 µM; in the assay with SF-295 CNS, 6.12 µM; with OVCAR-3 ovarian it was 3.54 µM; in the assay with NCI/ADR-RES ovarian, above 33.2 µM; with SK-OV-3 ovarian, above 33.2 µM. Moreover, the TGI with SK-MEL-2 melanoma is 0.156 µM; in the assay on TK-10 renal it was above 11.8 µM; in the assay with MDA-MB-231 breast, 9.97 µM; in the assay on SN12C renal it was above 33.2 µM.
For the compound `Nc1ccccc1SC(C[N+](=O)[O-])c1ccc2c(c1)OCO2` (stereo not given), the TGI with PC-3 prostate was found to be 20.6 µM; with UACC-257 melanoma, 3.86 µM; with SF-295 CNS it was 18.8 µM; in the assay with OVCAR-3 ovarian, 12.4 µM; with NCI/ADR-RES ovarian it was 73 µM; with SK-OV-3 ovarian, 15.9 µM. Also, the TGI in the assay on SK-MEL-2 melanoma came out at 27.7 µM; in the assay with TK-10 renal, 7.09 µM; with MDA-MB-231 breast, 20 µM; in the assay with SN12C renal, 14.3 µM.
Take `O=C(O)CSc1ccc([N+](=O)[O-])cc1[N+](=O)[O-]`: the TGI in the assay with PC-3 prostate, in the assay with UACC-257 melanoma, in the assay with SF-295 CNS, in the assay with OVCAR-3 ovarian, in the assay on NCI/ADR-RES ovarian and in the assay on SK-OV-3 ovarian was above 100 µM in each case. Further, the TGI in the assay on SK-MEL-2 melanoma, in the assay with TK-10 renal, with MDA-MB-231 breast and in the assay on SN12C renal was above 100 µM throughout.
